# Read-outs that look alike come from different tables or passages of the source.
# How the values were obtained:
# Assay type in all cases: in vivo
# NK 603 corn event [1] = tested on: NK 603 corn event
# GA 21 corn event [2] = settings: for % Yield / % Grain Moisture: harvest, 19 locations
# NK 603 corn event [3] = tested on: NK 603 corn event; remark: listed apart in the source
# Description: (§1) The glyphosate tolerance of RoundUp Ready corn events NK 603 and GA 21 were characterized in field trials. Corn was planted in 36 inch rows in plots of 4 rows by 30 ft with the two center rows being harvested. The study comprised 22 locations with 4 replicates of each treatment per location and the data were pooled across locations. Corn plants were treated with glyphosate at two consecutive developmental ages of V4 and V8. Glyphosate application rates were 0.75, 1.5, and 2.23 pounds per acre (lbs/A). Application volume was 10 gallons/acre. […] Data for chlorosis, malformed leaves, and growth reduction was collected at 22 locations. Also, at harvest of mature corn plants, the yield percentage and grain moisture percentage were assessed. Data for yield and grain moisture was collected at harvest at 19 locations and expressed as the mean percentage yield or moisture with respect to controls.
# GA 21 corn event [4] = tested on: GA 21 corn event
# Description: as §1
# [5] = tested on: RX 686 Roundup Ready corn hybrid (GA 21 event); experiment: Greenhouse glyphosate/PSII inhibitor injury assay, Example 2; settings: single application, treated at 2 leaves unfolded (GS 12)
# Description: (§2) Two corn seeds were planted one inch deep per 3.5×3.5 inch plastic pot filled with commercial potting mix (Redi-earth). The potting mix was supplemented with Osmacote™ 14-14-14 slow release fertilizer at 100 gm/ft3 to optimize growth. Pots were then placed in a greenhouse (25 C day/19 C night, 14 hour day) and water was supplied through subirrigation. Plants were allowed to grow to the stage where 3 leaves were unfolded (6-9 days after planting, approximate growth stage of GS 13) prior to the application of glyphosate and photosystem II inhibitor.
# (§3) Herbicide treatments consisted of application of glyphosate and PSII inhibitor. Application rates for glyphosate (Roundup UltraMAX, Monsanto, St. Louis) included: 840 gm/ha; 1680 gm/ha; and 3360 gm/ha (i.e., 0.75 lbs/A; 1.5 lbs/A; and 3.0 lbs/A). Application rates for linuron (Lorox, DuPont) included 56 gm/ha; 112 gm/ha; and 224 gm/ha. Application rates for metribuzin (Sencor, Bayer) included 56 gm/ha; 112 gm/ha; and 224 gm/ha. Treatments were broadcast applied in a research track sprayer utilizing an even flat fan spray tip. Plants were returned to the greenhouse following applications. Growth inhibition was measured 10 days after treatment (DAT). […] Growth reduction can be measured about 7-10 DAT by direct or visual estimation (0=no growth reduction, 100=complete growth reduction).
# (§4) Roundup Ready corn hybrids tested were RX 686Roundup Ready (GA 21 event) and DKC 53-33(NK 603 event). Growth of plant material and treatment regime was as described in Example 1, except plants were allowed to grow to the stage where 2 leaves were unfolded (approximately GS 12) prior to the application of glyphosate and photosystem II inhibitor. Growth inhibition was measured 10 days after treatment (DAT).
# [6] = tested on: DKC 53-33 corn hybrid (NK 603 event); experiment: as above; settings: single application, treated at 2 leaves unfolded (GS 12)
# Description: as §2, §3, §4
# [7] = glyphosate rate 0.75/0.75 (lbs/A) at V4/V8, 22 locations
# [8] = glyphosate rate 0.75/0.75 at V4/V8, mean with respect to controls, harvest, 19 locations
# [9] = glyphosate rate 1.5/1.5 (lbs/A) at V4/V8, 22 locations
# [10] = glyphosate rate 2.25/2.25 (lbs/A) at V4/V8, 22 locations
# [11] = glyphosate rate 2.25/2.25 at V4/V8, locations with injury greater than 9%
# [12] = glyphosate rate 2.25/2.25 at V4/V8, mean with respect to controls, harvest, 19 locations
# [13] = glyphosate rate 1.5/1.5 at V4/V8, locations with injury greater than 9%
# [14] = glyphosate rate 2.25/2.25 at V4/V8, mean with respect to controls
# [15] = NK 603, glyphosate rate 0.75/0.75 (lbs/A) at V4/V8, 22 locations
# [16] = NK 603, glyphosate rate 1.5/1.5 (lbs/A) at V4/V8, 22 locations
# [17] = NK 603, glyphosate rate 1.5/1.5 at V4/V8, mean with respect to controls, harvest, 19 locations
smiles,measurement,setting,value
"O=C(O)CNCP(=O)(O)O [glyphosate, N-phosphonomethylglycine]",% Growth Reduction 10 DAT: number of locations exhibiting injury greater than 9%,NK 603 corn event [1]; [7],None
same,% Growth Reduction 30 DAT: number of locations exhibiting injury greater than 9%,NK 603 corn event [1]; [7],None
same,% Grain Moisture,NK 603 corn event [1]; [8],100.2%
same,% Growth Reduction 10 DAT: number of locations exhibiting injury greater than 9%,NK 603 corn event [1]; [9],None
same,% Malform 10 DAT: number of locations exhibiting injury greater than 9%,NK 603 corn event [1]; [9],3
same,% Chlorosis 10 DAT: number of locations exhibiting injury greater than 9%,NK 603 corn event [1]; [10],3
same,% Growth Reduction 10 DAT: number of locations exhibiting injury greater than 9%,NK 603 corn event [1]; [10],3
same,% Growth Reduction 30 DAT: number of locations exhibiting injury greater than 9%,NK 603 corn event [1]; [10],2
same,% Malform 10 DAT: number of locations exhibiting injury greater than 9%,NK 603 corn event [1]; [10],6
same,% Chlorosis 10 DAT: percentage range of observed injury,NK 603 corn event [1]; [11],11-19%
same,% Growth Reduction 10 DAT: percentage range of observed injury,NK 603 corn event [1]; [11],10-19%
same,% Growth Reduction 30 DAT: percentage range of observed injury,NK 603 corn event [1]; [11],11-15%
same,% Malform 10 DAT: percentage range of observed injury,NK 603 corn event [1]; [11],11-19%
same,% Grain Moisture,NK 603 corn event [1]; [12],103.1%
same,% Yield,NK 603 corn event [1]; [12],96.6%
same,% Growth Reduction 10 DAT: number of locations exhibiting injury greater than 9%,GA 21 corn event [2]; [7],None
same,% Growth Reduction 30 DAT: number of locations exhibiting injury greater than 9%,GA 21 corn event [2]; [7],None
same,% Yield,"GA 21 corn event [2]; glyphosate rate 0.75/0.75 at V4/V8, mean with respect to controls",101.8%
same,% Chlorosis 10 DAT: number of locations exhibiting injury greater than 9%,GA 21 corn event [2]; [9],3
same,% Growth Reduction 10 DAT: number of locations exhibiting injury greater than 9%,GA 21 corn event [2]; [9],5
same,% Malform 10 DAT: number of locations exhibiting injury greater than 9%,GA 21 corn event [2]; [9],5
same,% Chlorosis 10 DAT: percentage range of observed injury,GA 21 corn event [2]; [13],10-14%
same,% Malform 10 DAT: percentage range of observed injury,GA 21 corn event [2]; [13],11-16%
same,% Grain Moisture,"GA 21 corn event [2]; glyphosate rate 1.5/1.5 at V4/V8, mean with respect to controls",101.0%
same,% Chlorosis 10 DAT: number of locations exhibiting injury greater than 9%,GA 21 corn event [2]; [10],3
same,% Growth Reduction 10 DAT: number of locations exhibiting injury greater than 9%,GA 21 corn event [2]; [10],7
same,% Growth Reduction 30 DAT: number of locations exhibiting injury greater than 9%,GA 21 corn event [2]; [10],4
same,% Malform 10 DAT: number of locations exhibiting injury greater than 9%,GA 21 corn event [2]; [10],6
same,% Growth Reduction 10 DAT: percentage range of observed injury,GA 21 corn event [2]; [11],11-30%
same,% Malform 10 DAT: percentage range of observed injury,GA 21 corn event [2]; [11],10-33%
same,% Grain Moisture,GA 21 corn event [2]; [14],101.6%
same,% Yield,GA 21 corn event [2]; [14],90.8%
same,% Chlorosis 10 DAT: number of locations exhibiting injury greater than 9%,NK 603 corn event [3]; [15],None
same,% Malform 10 DAT: number of locations exhibiting injury greater than 9%,NK 603 corn event [3]; [15],None
same,% Yield,"NK 603 corn event [3]; NK 603, glyphosate rate 0.75/0.75 at V4/V8, mean with respect to controls, harvest, 19 locations",103.3%
same,% Chlorosis 10 DAT: number of locations exhibiting injury greater than 9%,NK 603 corn event [3]; [16],None
same,% Growth Reduction 30 DAT: number of locations exhibiting injury greater than 9%,NK 603 corn event [3]; [16],None
same,% Malform 10 DAT: percentage range of observed injury,"NK 603 corn event [3]; NK 603, glyphosate rate 1.5/1.5 at V4/V8, locations with injury greater than 9%",10-11%
same,% Grain Moisture,NK 603 corn event [3]; [17],101.7%
same,% Yield,NK 603 corn event [3]; [17],99.4%
same,injury,"NK 603 corn event [3]; glyphosate applications up to 3360 gm/ha, even applied sequentially, NK 603 event (e.g. DKC 53-33 hybrid)",no injury
same,% Chlorosis 10 DAT: number of locations exhibiting injury greater than 9%,GA 21 corn event [4]; [7],None
same,% Malform 10 DAT: number of locations exhibiting injury greater than 9%,GA 21 corn event [4]; [7],None
same,% Grain Moisture,GA 21 corn event [4]; [8],100.7%
same,% Growth Reduction 30 DAT: number of locations exhibiting injury greater than 9%,GA 21 corn event [4]; [9],1
same,% Growth Reduction 10 DAT: percentage range of observed injury,GA 21 corn event [4]; [13],10-14%
same,% Growth Reduction 30 DAT: percentage range of observed injury,GA 21 corn event [4]; [13],11%
same,% Yield,"GA 21 corn event [4]; glyphosate rate 1.5/1.5 at V4/V8, mean with respect to controls, harvest, 19 locations",97.8%
same,% Chlorosis 10 DAT: percentage range of observed injury,GA 21 corn event [4]; [11],11-21%
same,% Growth Reduction 30 DAT: percentage range of observed injury,GA 21 corn event [4]; [11],10-13%
same,crop injury,[5],did not produce any discernable crop injury
same,crop injury,[6],did not produce any discernable crop injury
CON(C)C(=O)Nc1ccc(Cl)c(Cl)c1 [linuron],crop injury,[5],did not produce any discernable crop injury
same,crop injury,[6],did not produce any discernable crop injury
CSc1nnc(C(C)(C)C)c(=O)n1N [metribuzin],crop injury,[5],did not produce any discernable crop injury
same,crop injury,[6],did not produce any discernable crop injury
